Experimental data taken from ChEMBL document CHEMBL1201862, “PubChem BioAssay data set” (2004).
One block for each compound: values may come before it. Active and inactive are the calls of the source.

Assays:
[1] = target: T1, Probable nicotinate-nucleotide adenylyltransferase (Staphylococcus aureus (strain N315), UniProt P65502); assay type: functional, Staphylococcus aureus subsp. aureus N315;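 on IC50 Mean: confirmatory dose-response retesting of NadD inhibitor hits first found in an ultra-high-throughput screen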
[2] = target: Luciferin 4-monooxygenase (Photinus pyralis, UniProt P08659); assay: inhibition of purified Photinus pyralis luciferase – biochemical, luminescence, dose response (AID 1891)
Sequence of Luciferin 4-monooxygenase (P08659 whole entry): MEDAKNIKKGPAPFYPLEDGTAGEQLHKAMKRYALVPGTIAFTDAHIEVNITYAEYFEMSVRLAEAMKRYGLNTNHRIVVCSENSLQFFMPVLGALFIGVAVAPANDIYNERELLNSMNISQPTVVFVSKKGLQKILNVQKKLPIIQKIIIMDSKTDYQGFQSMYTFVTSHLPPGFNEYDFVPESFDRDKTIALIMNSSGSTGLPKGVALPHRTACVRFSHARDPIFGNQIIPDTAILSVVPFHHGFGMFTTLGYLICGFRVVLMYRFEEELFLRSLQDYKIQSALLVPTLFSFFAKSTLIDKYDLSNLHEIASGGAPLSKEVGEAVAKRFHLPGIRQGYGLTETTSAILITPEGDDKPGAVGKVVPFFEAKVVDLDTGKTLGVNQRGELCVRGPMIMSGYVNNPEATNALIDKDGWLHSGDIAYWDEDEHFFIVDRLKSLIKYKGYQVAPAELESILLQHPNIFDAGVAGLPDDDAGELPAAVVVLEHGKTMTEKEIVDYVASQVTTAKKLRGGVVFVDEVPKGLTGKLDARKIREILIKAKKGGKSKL

[3] = Luminescence Cell-Based Dose Confirmation HTS to Identify Inhibitors of Platelet Dense Granule Release. [Related pubchem assays: 1663 (Primary HTS), 1678 (Summary of Project)]; assay type: functional
[4] = target: T1, Probable nicotinate-nucleotide adenylyltransferase; assay type: functional, Staphylococcus aureus subsp. aureus N315; conditions: read-out: IC50_Mean
Phospholipase A2 = Phospholipase A2 (Homo sapiens, UniProt P04054); assay type: functional;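 further: confirmatory dose-response counterscreen on phospholipase A2, testing hits that came from an ultra-high-throughput screen for ATG4B inhibitors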
Sequence of Phospholipase A2 (P04054 whole entry): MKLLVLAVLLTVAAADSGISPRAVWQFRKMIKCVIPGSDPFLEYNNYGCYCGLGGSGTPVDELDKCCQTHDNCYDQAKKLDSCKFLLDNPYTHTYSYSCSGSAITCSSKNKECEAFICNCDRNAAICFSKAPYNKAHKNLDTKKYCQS

Cysteine protease ATG4B = target: T2, Cysteine protease ATG4B (Homo sapiens, UniProt Q9Y4P1); assay type: functional;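 further: Fluorescence-based dose-response confirmation assay measuring inhibition of ATG4B activity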
T2 sequence (Q9Y4P1 whole entry): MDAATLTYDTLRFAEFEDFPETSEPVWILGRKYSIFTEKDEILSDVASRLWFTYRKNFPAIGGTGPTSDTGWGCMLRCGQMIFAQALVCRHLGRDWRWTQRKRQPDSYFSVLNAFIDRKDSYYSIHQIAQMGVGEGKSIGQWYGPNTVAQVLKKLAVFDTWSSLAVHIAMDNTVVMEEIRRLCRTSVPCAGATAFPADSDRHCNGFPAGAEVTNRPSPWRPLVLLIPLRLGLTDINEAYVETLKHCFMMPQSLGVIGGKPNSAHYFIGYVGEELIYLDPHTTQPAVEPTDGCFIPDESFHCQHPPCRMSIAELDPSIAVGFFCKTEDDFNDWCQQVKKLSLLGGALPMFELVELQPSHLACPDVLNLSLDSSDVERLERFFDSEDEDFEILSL

BJ [5] = assay: cells; assay type: functional, cell-based; conditions: Homo sapiens
BJ [6] = assay: BJ-TERT fibroblast viability loss – cell-based, RAS-independent, luminescence, dose response (AID 1933); assay type: functional; conditions: Homo sapiens
BJ [7] = assay: BJ-TERT-LT-ST fibroblast viability loss – cell-based, RAS-independent, luminescence, dose response (AID 1935); assay type: functional; conditions: Homo sapiens;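 further: BJ fibroblasts immortalized with TERT plus LT and ST oncogenes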
[8] = DRD fibroblast viability loss – cell-based, non-viral oncogenic, luminescence, dose response (AID 1934); assay type: functional; conditions: Homo sapiens
INS1 = assay: INS-1E survival protection against cytokine death – cell-based, luminescence, retest, dose response (AID 449756); assay type: functional; conditions: Rattus norvegicus;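 further: cell death triggered by IL-1 beta plus TNF-alpha plus IFN-gamma mixture; protective hits raise ATP signal compared with cytokine alone wells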
BJ [9] = assay: growth inhibition of engineered Ras-driven BJ cells – cell-based, alamar blue fluorescence, cherrypicked samples, dose response (AID 2631); assay type: functional; conditions: Homo sapiens;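 further: confirmatory dose-response assay in RAS-dependent BJ fibroblasts engineered with TERT, LT and ST, with cytotoxicity read by fluorescence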
[10] = target: T3, DNA repair and recombination protein RAD54-like (Homo sapiens, UniProt Q92698); assay: RAD54 Holliday junction migration blockers – biochemical, fluorescence, cherry-picked samples, dose series, confirmation (AID 651657); assay type: functional
T3 sequence (Q92698 whole entry): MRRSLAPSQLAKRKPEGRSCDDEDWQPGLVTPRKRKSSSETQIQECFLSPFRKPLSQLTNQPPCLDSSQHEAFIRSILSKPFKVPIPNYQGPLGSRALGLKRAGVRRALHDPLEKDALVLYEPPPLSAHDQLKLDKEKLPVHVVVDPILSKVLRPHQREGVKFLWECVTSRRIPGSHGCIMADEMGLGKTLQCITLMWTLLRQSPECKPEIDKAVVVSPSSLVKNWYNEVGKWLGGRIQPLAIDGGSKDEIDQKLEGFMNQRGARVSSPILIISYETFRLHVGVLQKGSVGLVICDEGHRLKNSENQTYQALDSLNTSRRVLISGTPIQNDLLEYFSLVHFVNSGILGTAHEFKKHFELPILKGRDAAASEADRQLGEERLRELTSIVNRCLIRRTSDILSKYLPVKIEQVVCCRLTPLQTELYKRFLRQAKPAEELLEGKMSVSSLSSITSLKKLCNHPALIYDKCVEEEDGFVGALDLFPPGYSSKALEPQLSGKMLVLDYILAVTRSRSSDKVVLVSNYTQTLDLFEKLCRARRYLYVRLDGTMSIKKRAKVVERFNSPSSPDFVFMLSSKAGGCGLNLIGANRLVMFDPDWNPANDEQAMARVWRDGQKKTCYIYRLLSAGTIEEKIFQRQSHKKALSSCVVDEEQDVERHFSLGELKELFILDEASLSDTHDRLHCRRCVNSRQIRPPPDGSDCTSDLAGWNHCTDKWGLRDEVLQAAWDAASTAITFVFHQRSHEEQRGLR

[11] = target: T4, DNA repair protein RAD52 homolog (Homo sapiens, UniProt P43351); assay type: functional, biochemical
T4 sequence (P43351 whole entry): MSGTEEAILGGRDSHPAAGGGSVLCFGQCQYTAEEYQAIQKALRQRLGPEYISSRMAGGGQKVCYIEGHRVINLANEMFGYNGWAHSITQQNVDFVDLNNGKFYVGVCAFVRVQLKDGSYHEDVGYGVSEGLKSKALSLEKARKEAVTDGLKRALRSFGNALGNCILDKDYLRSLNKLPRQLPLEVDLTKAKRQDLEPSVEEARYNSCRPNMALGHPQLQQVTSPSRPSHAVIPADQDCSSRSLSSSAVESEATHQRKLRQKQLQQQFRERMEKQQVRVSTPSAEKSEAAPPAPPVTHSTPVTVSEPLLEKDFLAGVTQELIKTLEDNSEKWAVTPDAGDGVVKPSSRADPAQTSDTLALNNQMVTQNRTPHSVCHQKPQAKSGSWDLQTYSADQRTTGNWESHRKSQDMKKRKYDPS

[12] = HEK-293T viability loss after treatment – luminescence, T-cell screen hits, cytotoxicity control for TCR NF-kB inhibitor project, dose response (AID 489026); assay type: functional, cell-based;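 further: cells exposed to compound about 14 hours before the viability readout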
[13] = target: T5, Sentrin-specific protease 8 (Homo sapiens, UniProt Q96LD8); assay type: functional
T5 sequence (Q96LD8 whole entry): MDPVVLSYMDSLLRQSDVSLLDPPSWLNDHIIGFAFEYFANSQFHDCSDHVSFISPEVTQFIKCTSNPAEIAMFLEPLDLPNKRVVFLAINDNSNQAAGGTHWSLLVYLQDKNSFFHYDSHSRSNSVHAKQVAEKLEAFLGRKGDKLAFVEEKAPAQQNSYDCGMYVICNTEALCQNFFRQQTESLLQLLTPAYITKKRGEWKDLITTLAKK

[14] = target: T5, Sentrin-specific protease 8; assay type: functional; remark: listed apart in the source

SMILES: COc1cccc(C2c3c(-c4cc(Cl)c(C)cc4O)n[nH]c3C(=O)N2Cc2cccnc2)c1 (stereo not given)
- IC50 [1]: 21.5 µM (active)
- EC50 [2]: > 112 µM (not active)
- EC50 [3]: 41.2 µM (active)
- IC50 [4]: 46 µM (active)

SMILES: CC1CC(C)CN(C(=O)C2CCN(S(=O)(=O)c3ccc4c(c3)CC(C)N4C(=O)C3CC3)CC2)C1 (stereo not given)
- IC50 (Phospholipase A2): 7.55 µM (active)
- IC50 (Cysteine protease ATG4B): 14.5 µM (active)

SMILES: O=C(COc1ccc(Cl)cc1)Nc1ccc(C(=O)NCc2cccnc2)cc1
- EC50 (BJ [5]): 2.87 µM (active)
- EC50 (BJ [6]): > 150 µM (not active)
- EC50 (BJ [7]): 18.8 µM (inconclusive)
- EC50 [8]: > 150 µM (inconclusive)
- AC50 (INS1): < 195 nM (active)
- EC50 (BJ [9]): 25.6 µM (active)

SMILES: C[C@@H]1C=CC(=O)O[C@@H]1c1ccc(Cl)cc1
- EC50 (BJ [5]): 23.8 µM (active)
- IC50 [12]: > 80 µM (inactive)
- EC50 (BJ [6]): 21.3 µM (active)
- EC50 (BJ [7]): 16.7 µM (active)
- EC50 [8]: 5.84 µM (active)
- EC50 (BJ [9]): 0.547 µM (active)

SMILES: O=C(c1ncn(Cc2ccccc2)c1C(=O)N1CCc2ccccc2C1)N1CCc2ccccc2C1
- IC50 [13]: 16 µM (active)
- IC50 [14]: > 100 µM (inactive)

Results, then the compound that gave them:

- AC50 [10]: 6.36 µM (active)
- AC50 [11]: 2.35 µM (active)
SMILES: COc1ccc(-c2nn(C)c3sc(C(=O)NCCN(C)C)cc23)cc1OC

- AC50 [10]: 26.7 µM (active)
- AC50 [11]: 2.42 µM (active)
SMILES: COc1cccc(-c2cnc3c(NC(C)=O)cc(-c4cccc(C(=O)NCCN(C)C)c4)cn23)c1

- IC50 [1]: 9.52 µM (active)
- IC50 (Phospholipase A2): 16.6 µM (active)
- IC50 (Cysteine protease ATG4B): 20.5 µM (inactive)
- IC50 [4]: 52.9 µM (active)
SMILES: CCCc1cc(=O)[nH]c(SCC(=O)N2N=C(c3ccc(Cl)cc3)CC2c2ccco2)n1 (stereo not given)

- IC50 (Phospholipase A2): 8.63 µM (active)
- IC50 (Cysteine protease ATG4B): 21 µM (inactive)
SMILES: O=C(O)Cc1sc(NC2CCCCC2)nc1-c1ccc(Cl)cc1
